# Laboratory results: PubChem BioAssay AID489016 (The Scripps Research Institute Molecular Screening Center, 2010)
# Test system: P. falciparum 3D7 in RBCs, 3H-hypoxanthine incorporation, 48 h
# Assay: P. falciparum blood-stage growth inhibition potency, dose response, M17LAP inhibitor project, cell-based, radiolabel, RBCs, powder sample, late stage (AID 489016)
smiles,measurement,value
CCCCOc1ccc(CC(=O)NO)cc1,IC50,1.7 µM
